Measurements published in patent US11458083B2, “Cosmetic and/or dermatological composition containing a merocyanine derivative comprising specific polar groups consisting of hydroxyl- and ether-functionalities” (L'OREAL, priority 2011, dated 2022).

Tests used:
Type in all cases: physicochemical
[1] = Photostability of the UV filters in a formula film exposed to a solar simulator (HPLC); settings: film about 20 μm, UVA dose 42 J/cm^2
Excerpt: The percentage of residual amount of each UV filter (merocyanine compound and dibenzoylmethane compound) caused by the exposure to a solar simulator of a formula spread in a film having a thickness of about 20 μm was measure. The evaluation was done by HPLC analysis of each UV filter in a solution after extraction of the film, by comparing exposed and non-exposed samples. Solar simulator: Apparatus Oriel […] equipped with a 4 pouces outlet, a 81017 filter and a dichroic mirror. The samples were exposed in horizontal position. The UV exposure was characterized by: • a UVB flux of 0.35-0.45 mW/cm^2 • a UVA flux 16-18 mW/cm^2. Each residual amount of each UV filter was measured by HPLC chromatography with a sensor having diodes bars. About 20 mg of the composition are spread on the surface of a rough melt silica disc. 3 films of composition were exposed to the solar simulator and 3 other films were used as control. The samples were exposed 3 per 3 to the light of the simulator during a sufficient time delivering an UVA dose of 42 J/cm^2. At the end of the exposure, the disc was introduced in a bowl of 600 ml with 10 ml of appropriate solvent (ie generally ethanol). The disc and the bowl were then placed during 5 minutes in an ultrasonic tank.

[2] = UV shielding properties: UV spectra in ethanol; parameters: Absorption maximum λmax: unit not given here; settings: UV spectrum in ethanol
Excerpt: The UV shielding properties of the merocyanine derivatives are investigated by measuring their UV spectra in ethanol. In the following table the investigated absorption maxima (Amax) together with the corresponding A^1%1cm values are listed.

[3] = Storage (chemical) stability in water/ethanol solution, UPLC; settings: 0.5% in water/ethanol 1/1, 45° C.
Protocol: The chemical stability of the compounds can be assessed in a water/ethanol solution 1/1 with compounds solubilized at 0.5%.
(§1) Once the solution prepared, it is placed in an oven at 45° C. for 2 months for stability and 1 h at 60° C. for acidic stress. Then the solution is aliquoted (0.005% w/v in H2O/ACN 50/50) for liquid chromatography analysis to check disappearance or not.
(§2) UPLC Acquity (Waters) with diod array detector eλ (Waters).
(§3) Column: Acquity HSS T3 (Waters), length: 50 mm, Inner diameter: 2.1 mm, particles diameter 1.8 μm. Mobile phase A=ammonium acetate 20 mM, B=Acetonitrile.
(§4) • Flow rate: 0.5 mL/min • T: 20° C. • Detection at UV 383 nm

[4] = Acid media stability (HCl 0.1M), UPLC; settings: HCl 0.1M in water/ethanol/isopropanol 50/40/10 (v/v/v), 1 h at 60° C.
Protocol: These solutions could be acidified to check also stability toward acid media for example HCl 0.1M in a water/ethanol/isopropanol 50/40/10 (v/v/v).
as §1, §2, §3, §4

Row | Structure (SMILES) | % of residual Avobenzone after UV exposure ([1]; in composition Example 9 (with 1% merocyanine compound 4)) [%] | A^1%1 cm at absorption maximum [2] | Absorption maximum λmax [2] | % of residual merocyanine compound 4 after UV exposure ([1]; in composition Example 9 (with 2% avobenzone)) [%] | Storage stability 2 months 45° C. [3] | Acid media stability 1 h 60° C. (loss) [4]
1 | COc1ccc(C(=O)CC(=O)c2ccc(C(C)(C)C)cc2)cc1 [Avobenzone, 4-(tert-butyl)-4′-methoxydibenzoylmethane, reference compound] | 91 |  |  |  |  | 
2 | CCOC(=O)/C(C#N)=C/C=C/N(CCOC)CCOC [Compound 1] |  | 2283 | 380 |  |  | 
3 | COCCOC(=O)/C(C#N)=C/C=C/N(CCOC)CCOC [Compound 2] |  | 2046 | 380 |  |  | 
4 | CCOCCOC(=O)/C(C#N)=C/C=C/N(CCOC)CCOC [Compound 3] |  | 1965 | 380 |  |  | 
5 | CCOCCOC(=O)/C(C#N)=C/C=C/N1CCCCC1 [Compound 4] |  | 2568 | 381 | 85 |  | 
6 | COCCOCCOC(=O)/C(C#N)=C/C=C/N1CCCCC1 [Compound 5] |  | 2252 | 381 |  |  | 
7 | N#C/C(=C\C=C\N1CCCCC1)C(=O)NCCO [Compound 6] |  | 2530 | 380 |  |  | 
8 | N#C/C(=C\C=C\N1CCCCC1)C(=O)OCC(O)CO (centres unmarked) [Compound 7] |  | 2467 | 381 |  |  | 
9 | N#C/C(=C\C=C\N1CCOCC1)C(=O)OCC(O)CO (centres unmarked) [Compound 9] |  | 2414 | 380 |  |  | 
10 | CCCCOC(=O)/C(C#N)=C/C=C/N(CCO)CCCC [Compound 12] |  | 2235 | 381 |  |  | 
11 | CCOC(=O)/C(C#N)=C1\C=C(NCCCOC)CCC1 [Compound 14] |  | 2207 | 385 |  |  | 
12 | COCCCNC(=O)/C(C#N)=C1\C=C(NCCCOC)CCC1 [Compound 15] |  | 1644 | 385 |  | No loss | Loss 100%
13 | CCCCC(CC)CNC1=C/C(=C(/C#N)C(=O)NCCO)CCC1 (centres unmarked) [Compound 16] |  | 1618 | 386 |  |  | 
14 | CC(C)COC(=O)/C(C#N)=C1\C=C(NCC(C)O)CCC1 (centres unmarked) [Compound 17] |  | 2083 | 385 |  |  | 
15 | CCCCCCCCOC(=O)/C(C#N)=C/C=C/N(CC)CCO [Compound 18] |  | 2036 | 385 |  |  | 
16 | CCCN(/C=C/C=C(\C#N)C(=O)OCC(O)CO)CCC (centres unmarked) [Compound 23] |  | 2230 | 381 |  |  | 
17 | CCOCCOC(=O)/C(C#N)=C1\C=C(NCCCOC)CCC1 [Compound 25, 2-ethoxyethyl (2Z)-cyano{3-[(3-methoxypropyl)amino]cyclohex-2-en-1-ylidene}ethanoate] |  | 1947 | 385 |  | No loss | Loss 4%
